# Results from patent publication US8088934B2, “Composition and method for stabilizing the same” (SUCAMPO AG, priority 1999, dated 2012).
# Legend:
# Type in all cases: physicochemical
# [1] = Stability of the compounds stored solely (crystal, without solvent) at 40° C., content by HPLC; conditions: crystal (no solvent), hard glass container
# Experimental: (§1) The above-described compounds 1 and 2 were dissolved in the medium chain fatty acid triglyceride (MCT)^31 at the amount shown in the table 1 below respectively. Each of the solutions was placed in a container made of hard glass and stored at 40° C. The time-course of the content of the compound 1 and 2 in the solutions were determined by HPLC method. The medium chain fatty acid triglyceride used herein was a mixture of caprylic acid triglyceride and capric acid triglyceride (85:15). At the same time, each of the compounds 1 and 2 was placed solely (without being dissolved in the solvent) in the container as above and stored at 40° C. to provide control study.
# (1) Under the absence of the solvent, the content of the compound was determined as follows (HPLC method).
# The stored compounds 1 and 2, and standard compounds 1 and 2 were weighed precisely around 0.025 g each, and exactly 5 ml aliquots of an internal standard solution were added to the respective weighed compounds. Then the test and standard preparations were obtained by adding acetonitrile (liquid chromatograph grade) to give the precise total amount of 10 ml each. Each 10 μl of the test and standard preparations was loaded on liquid chromatograph and determined the content of the compound by internal standard method with one point calibration curve.
# [formula] Ws: The amount of the compound in the standard preparation (mg) WT: The amount of the compound 1 or 2 in the test preparation QS: Peak area ratio of the compound in the standard preparation to the internal standard. QT: Peak area ratio of the compound in the test preparation to the internal standard. Measurement Conditions Detector: Ultraviolet absorption spectrophotometer (wavelength: 294 nm) Column: A stainless tube having about 5 mm of internal diameter and about 25 cm of length, packed with 5 μm octadecylsilyl silica gel for liquid chromatograph Column temperature: Stable at around 35° C. Mobile phase: Mixed solution of acetonitrile (liquid chromatograph grade)/aqueous sodium acetate (0.01 mol/l)/glacial acetic acid (800:200:1) (2) Under the presence of the solvent, the content of the compound was determined as follows (HPLC method).
# [2] = Stability of the compounds dissolved in medium chain fatty acid triglyceride (MCT) stored at 40° C., content by HPLC; conditions: for stability on admixing with the glyceride (conclusion from Table 1): MCT versus crystal; for content of the compound stored at 40° C., 14 days / content of the compound stored at 40° C., initial: in MCT (compound 1: 0.36 mg/g; compound 2: 0.12 mg/g)
# Experimental: as §1
# (§2) Based on the value expressed in the table 1, an amount of the solution corresponding to 36 μg of the compound 1 or 2 was weighted precisely. Precisely 1.0 ml of an internal standard solution was added, and then ethyl acetate (liquid chromatograph grade) was added to give the total amount of 10 ml each. Each 0.1 ml of the solution was vacuum concentrated to dryness to give the test preparation.
# (§3) Each 18 mg of the respective standard compounds was weighted precisely and admixed with ethyl acetate (liquid chromatograph grade) to give the total amount of exactly 50 ml each. One (1.0) ml of the solution and 10.0 ml of the internal standard solution were measured precisely and admixed with ethyl acetate (liquid chromatograph grade) to give the total amount of 100 ml each. Each 0.1 ml of the solution was vacuum concentrated to dryness to give the standard preparation.
# (§4) To the test and standard preparations, 0.1 ml of fluorescent labeling reagent and 0.85 ml of fluorescent labeling catalyst were added respectively, and the mixture was stirred and reacted at room temperature more than 30 minutes. 0.05 ml aliquots of acetonitrile (liquid chromatograph grade) containing 2% acetic acid were added to the reaction mixtures respectively, stirred and then stand for more than 30 minutes to provide test and standard solutions.
# (§5) Each 10 μl of the test and standard solutions was loaded on liquid chromatograph and determined the content of the respective compounds by internal standard method with one point calibration curve.
# (§6) [formula] WS: The amount of the compound in the standard preparation (mg) QS: Peak area ratio of the compound in the standard preparation to the internal standard QT: Peak area ratio of the compound in the test preparation to the internal standard. Measurement Condition Detector: fluorescent spectrometer (excitation wavelength 259 nm, fluorescent wavelength 394 nm) Column: A stainless tube having about 5 mm of internal diameter and about 25 cm of length, packed with 5 μm octadecylsilyl silica gel for liquid chromatograph Column temperature: Stable at around 35° C. Mobile phase: Mixed solution of acetonitrile (liquid chromatograph grade)/methanol (liquid chromatograph grade)/aqueous ammonium acetate (0.05 mol/l) (4:11:5) The results are shown in Table 1 below.
# [3] = Stability of compound 1 stored at 40° C. for 4 weeks in various solvents and containers, content by HPLC
# Experimental: as §2, §3, §4, §5, §6
# Each of the solutions was placed in a container made of low-density polyethylene (LDPE), hard glass or stainless steel and stored at 40° C. The content of the compound 1 in the solutions after four weeks were determined by HPLC method according to the above described (2) of Example 1 except for using composition shown in table 2 below.
# [4] = Stability of compound 1 stored at 40° C. for 4 weeks in various ratio of MCT to Mineral oil, content by HPLC
# Experimental: as §2, §3, §4, §5, §6
# Each of the solutions was placed in a container made of LDPE and stored at 40° C. The content of the compound in the solutions after four weeks were determined by HPLC method according to the above described (2) of Example 1 except for using composition shown in table 3 below.
smiles,measurement,setting,value
"CC[C@H](C)CC(F)(F)[C@@]1(O)CC[C@H]2[C@@H](CC(=O)[C@@H]2CCCCCCC(=O)O)O1 [compound 2, 7-[(1R,6R,7R)-3-[(3S)-1,1-difluoro-3-methylpentyl]-3-hydroxy-2-oxabicyclo[4.3.0]nonane-8-one-7-yl]heptanoic acid]","content of the compound stored at 40° C., 6 days",[1]; 6 days,84.5%
same,"content of the compound stored at 40° C., 14 days",[1],75.0%
same,"content of the compound stored at 40° C., 28 days",[1],53.4%
same,"content of the compound stored at 40° C., initial",[1],100%
same,stability on admixing with the glyceride (conclusion from Table 1),[2],significantly improved
same,"content of the compound stored at 40° C., 14 days",[2]; hard glass,99.6%
same,"content of the compound stored at 40° C., initial",[2]; hard glass,100%
same,"content of the compound stored at 40° C., 28 days","[2]; in MCT (compound 2: 0.12 mg/g), hard glass, 28 days",98.9%
same,"content of the compound stored at 40° C., 191 days","[2]; in MCT (compound 2: 0.12 mg/g), hard glass, 191 days",99.6%
"CCCCC(F)(F)[C@@]1(O)CC[C@H]2[C@@H](CC(=O)[C@@H]2CCCCCCC(=O)O)O1 [compound 1, 7-[(1R,3R,6R,7R)-3-(1,1-difluoropentyl)-3-hydroxy-2-oxabicyclo[4.3.0]nonane-8-one-7-yl]heptanoic acid]","content of the compound stored at 40° C., 7 days",[1]; 7 days,97.2%
same,"content of the compound stored at 40° C., 14 days",[1],94.1%
same,"content of the compound stored at 40° C., 28 days",[1],87.4%
same,"content of the compound stored at 40° C., initial",[1],100%
same,stability on admixing with the glyceride (conclusion from Table 1),[2],significantly improved
same,"content of the compound stored at 40° C., 38 days","[2]; in MCT (compound 1: 0.36 mg/g), hard glass, 38 days",102.1%
same,"content of the compound stored at 40° C., 90 days","[2]; in MCT (compound 1: 0.36 mg/g), hard glass, 90 days",100.9%
same,"content of the compound stored at 40° C., 14 days",[2]; hard glass,101.4%
same,"content of the compound stored at 40° C., initial",[2]; hard glass,100%
same,% to the initial 4 weeks after,"[3]; 10 μg/mL, MCT, LDPE container",100.8%
same,% to the initial 4 weeks after,"[3]; 10 μg/mL, Saline, Hard glass container",18.0%
same,% to the initial 4 weeks after,"[3]; 20 μg/mL, Caster oil, LDPE container",102.9%
same,% to the initial 4 weeks after,"[3]; 20 μg/mL, Corn oil, LDPE container",99.6%
same,% to the initial 4 weeks after,"[3]; 20 μg/mL, Diluted water, Hard glass container",39.6%
same,% to the initial 4 weeks after,"[3]; 20 μg/mL, MCT, Hard glass container",99.5%
same,% to the initial 4 weeks after,"[3]; 20 μg/mL, MCT, Stainless steel container",99.5%
same,% to the initial 4 weeks after,"[3]; 20 μg/mL, Olive oil, LDPE container",99.0%
same,% to the initial 4 weeks after,"[3]; 20 μg/mL, Sesame oil, LDPE container",100.1%
same,stability on admixing with the glyceride (conclusion from Table 2),[3]; glycerides versus water or saline,significantly improved
same,% to the initial 4 weeks after,"[4]; 0.5 μg/mL, MCT/MO (V/V) 1/99, LDPE",91.0%
same,% to the initial 4 weeks after,"[4]; 0.5 μg/mL, MCT/MO (V/V) 2/98, LDPE",96.6%
same,% to the initial 4 weeks after,"[4]; 0.5 μg/mL, MCT/MO (V/V) 5/95, LDPE",98.1%
same,% to the initial 4 weeks after,"[4]; 0.5 μg/mL, MCT/MO (V/V) 10/90, LDPE",99.0%
same,% to the initial 4 weeks after,"[4]; 0.7 μg/mL, MCT/MO (V/V) 0/100, LDPE",88.3%
same,% to the initial 4 weeks after,"[4]; 10 μg/mL, MCT/MO (V/V) 50/50, LDPE",101.9%
same,stability on admixing with the mixture of glyceride and other oil solvent (conclusion from Table 3),[4]; MCT/Mineral oil mixtures,significantly improved
